Source: patent US20220202882A1, “EFFECT OF COMBINATION OF BIFIDOBACTERIUM AND BERBERINE ON PRE-DIABETES AND TYPE 2 DIABETES” (The Fourth Military Medical University, priority 2018, published 2022)
Structures can show the parent of a compound that is named as a salt.

How the values were obtained:
[1] = test system: pre-diabetic and type 2 diabetes mellitus patients; test: Clinical trial: ketone level in urine; type: in vivo, human; settings: for Effect on urine ketone body level (in words) / Post-treatment ketone level in urine - pre-treatment ketone level in urine, mean value: 16 weeks of treatment; for Post-treatment ketone level in urine - pre-treatment ketone level in urine, mean value / Post-treatment ketone level in urine, mean value / Pre-treatment ketone level in urine, mean value: FAS; for Post-treatment ketone level in urine, mean value: after 16 weeks of treatment; for Pre-treatment ketone level in urine, mean value: baseline before treatment
Experimental: (§1) From June 2015 to October 2018, a double-blind, randomized, and parallel-controlled trial, studying the effects of the combined use of Bifidobacterium and berberine on pre-diabetic and type 2 diabetes mellitus patients, was conducted in 10 research centers in Xi'an, Yan'an and Shangluo of Shaanxi province, etc., including the First Affiliated Hospital of the Fourth Military Medical University. The trial included an enrollment stage of 2 weeks and a treatment stage of 16 weeks. After passing the first visit 1 (see V1 in Table 1), the subjects entered the enrollment stage, i.e., 2 weeks of lifestyle intervention, followed by a re-screening (see V2 in Table 1). The subjects were subjected to a 16-week course of treatment after passing the screening. See Table 1 for the detailed screening parameters. After the enrollment stage, the baseline data of the 300 successfully enrolled subjects were collected. Meanwhile, the subjects started to receive lifestyle guidance, and were randomly divided into four groups for 16 weeks of treatments. 1) Bifidobacterium group: the subjects were administered with Bifidobacterium capsules (Livzon Pharmaceutical Group Inc., batch no.: 20141013), 0.35 g/capsule, each capsule containing 50,000,000 viable bacteria (Bifidobacterium adolescentis DM8504), 2 capsules/time, 2 times/day, plus berberine placebo tablets (Northeast Pharma Group Shenyang First Pharma Co., Ltd., Lot no.: 20150101, containing 80.2% microcrystalline cellulose, 9.4% pregelatinized starch, 6.4% sodium carboxymethyl starch, 1% magnesium stearate, and 3% copovidone), 0.1 g/tablet, 5 tablets/time, 2 times/day. 2) Berberine group: the subjects were administered with berberine tablets (Northeast Pharma Group Shenyang First Pharma Co., Ltd., Lot no.: 130917, each tablet weighted 0.165 g and contained 0.1 g active berberine ingredient (berberine hydrochloride), with the same excipients as the placebo tablets), 5 tablets/time, 2 times/day, plus Bifidobacterium placebo capsules (Livzon Pharmaceutical Group Inc., Lot no.: 141001, specifically containing 0.348 g spray-dried lactose, and 0.002 g magnesium stearate), 0.35 g/capsule, 2 capsules/time, 2 times/day. 3) Combination Group: the subjects were administered with Bifidobacterium capsules, 0.35 g/capsule, each capsule containing 50,000,000 viable bacteria (B. adolescentis DM8504), 2 capsules/time, 2 times/day, plus berberine tablets, 0.1 g/tablet, each tablet containing 0.1 g active berberine ingredient (berberine hydrochloride), 5 tablets/time, 2 times/day. 4) Control group: the subjects were administered with Bifidobacteria placebo capsules, 0.35 g/capsule, 2 capsules/time, 2 times/day, plus berberine placebo tablets, 0.1 g/tablet, 5 tablets/time, 2 times/day. Bifidobacterium capsules were taken after meals and berberine tablets were taken before meals. Tests of all samples in the study were carried out in a designated laboratory with standardized criteria. Blood analysis covered hundreds of indicators including insulin, amino acids, cytokines etc. After the sample testing was finished, 1) Chi-Squared test and t-test were used to evaluate the intergroup balance of the baseline data including the demographic characteristics and pre-treatment indicators, wherein the baseline data referred to those collected at the second visit, before the formal administration, the data collected at the first visit on the enrollment stage were used instead if the data at the second visit was lacking; 2) two-way disordered CM-CH11, Kruska-Wilcox test, etc. were used for analysis and intergroup comparison of pre- and post-treatment indicators such as fasting plasma glucose (FPG), HbA1c, plasma glucose at 2 hours post OGTT (2-h PPG), blood pressure, blood lipids, body weight and BMI; 3) adverse events and hypoglycemia events were described in terms of the type, frequency and relevance with the drugs, for safety evaluation. Software SAS 9.1.3 was used for statistical analysis with all analysis processes being programmed. […]

[2] = test system: pre-diabetic and type 2 diabetes mellitus patients; test: Clinical trial: blood lipids (total cholesterol, HDL, LDL); type: in vivo, human; settings: for Effect on total cholesterol level (in words) / High-density lipoprotein change, mean value / Post-treatment low-density lipoprotein - pre-treatment low-density lipoprotein, mean value / Post-treatment total cholesterol - pre-treatment total cholesterol, mean value: 16 weeks of treatment; for Effect on total cholesterol level (in words): Kruskal-Wilcox test; for Post-treatment low-density lipoprotein, mean value / Post-treatment total cholesterol, mean value: after 16 weeks of treatment; for Pre-treatment low-density lipoprotein, mean value / Pre-treatment total cholesterol, mean value: baseline before treatment
Experimental: as §1

Compound | Effect on urine ketone body level (in words) [1] | Post-treatment ketone level in urine - pre-treatment ketone level in urine, mean value [1] | Post-treatment ketone level in urine, mean value [1] | Pre-treatment ketone level in urine, mean value [1] | Effect on total cholesterol level (in words) [2] | High-density lipoprotein change, mean value ([2]; FAS) | Post-treatment low-density lipoprotein - pre-treatment low-density lipoprotein, mean value ([2]; FAS) | Post-treatment total cholesterol - pre-treatment total cholesterol, mean value ([2]; FAS) | Post-treatment low-density lipoprotein, mean value ([2]; FAS) | Post-treatment total cholesterol, mean value ([2]; FAS) | Pre-treatment low-density lipoprotein, mean value ([2]; FAS) | Pre-treatment total cholesterol, mean value ([2]; FAS) | High-density lipoprotein change, mean value ([2]; PPS)
COc1ccc2cc3[n+](cc2c1OC)CCc1cc2c(cc1-3)OCO2 [Berberine, berberine hydrochloride] | not observed | 0.0526 | 0.0513 | 0.0000 | significantly reduce the total cholesterol level | 0.00 mmol/L | -0.15 mmol/L | -0.2770 mmol/L | 2.76 mmol/L | 4.6400 mmol/L | 2.99 mmol/L | 5.0200 mmol/L | -0.00 mmol/L
Bifidobacterium | not observed | −0.0909 | 0.0341 | 0.1100 | did not have evident total cholesterol lowing effect | 0.03 mmol/L | -0.00247 mmol/L | 0.0219 mmol/L | 2.9 mmol/L | 4.8100 mmol/L | 2.85 mmol/L | 4.7600 mmol/L | 0.03 mmol/L
